From paper PMC8294803, “A Roadmap to the Structure-Related Metabolism Pathways of Per- and Polyfluoroalkyl Substances in the Early Life Stages of Zebrafish (Danio rerio)” (Environmental Health Perspectives, 2021)
Several values for one entry are separate records, joined by “and”; a condition that tells them apart may be missing. Equal values may be shown once. Read-outs that look alike come from different tables or passages of the source.

Columns and labels:
[1] = system: zebrafish embryos
[2] = system: zebrafish larvae; assay: Bioconcentration factors (BCF) of PFAS in zebrafish larvae; conditions: zebrafish larvae, 120 hpf, three replicates; for BCF 0.5µM: 0.5 µM exposure; for BCF 5µM: 5 µM exposure
Experimental: Zebrafish embryos were collected immediately after spawning, within 1 h, and subsequently transferred to 24-well plates with 1mL of facility water ( 0.036g sea salt, 0.15g sodium bicarbonate in 2L of reverse osmosis water). […] Three well replicates on the same plate were conducted for each concentration of individual chemical. […] Seven batches of experiments were performed to test all 74 PFAS. DMSO controls were incorporated in each batch of exposure experiments. Three replicates were performed for each treatment group, and 20 embryos were used for each replicate. […] For daily replenishment, 2.5mL of old exposure medium were replaced with freshly prepared medium every 24 h from 24 to 96 h post fertilization (hpf). Hatched or dead embryo numbers were recorded every 24 hpf, after which dead embryos were discarded from the growth media. Dead embryos or unhatched embryos were not used for PFAS measurement because the metabolism of PFAS might have been impacted. Zebrafish larvae collection occurred at 120 hpf. First, the larvae were anesthetized by cooling the plate in ice water (0–4°C) for ∼20 min . Then 8–15 larvae in each well were transferred into 1.5-mL tubes. Exposure media was carefully removed, and then the larvae were weighed (wet weight) after blotting excess water with a paper towel. […] Samples were stored at −80 °C until further chemical analysis was performed. Survival rate and hatching rate were calculated by summarizing all the documented data from the whole treatment duration. […] The exposure experiment of PFOSA was repeated using the same procedure as described above.
Each sample was spiked with 2μL of 0.2μg/mL mass-labeled PFAS mixture. Following this, 500μL of dichloromethane/methanol (2:1, vol/vol) was added to each sample for PFAS extraction. Larvae were then homogenized via ultrasonic probe, followed by 30 min of shaking and 30 min of sonication. Each sample was centrifuged at 14,000×g for 5 min, after which the supernatant was transferred to new tubes. Extraction was repeated once and the two supernatants were combined, evaporated under nitrogen flow, and reconstituted in 200μL of methanol for MS analysis.
Three microliters of each zebrafish extract was applied to a C18 column ( 1.5μm; 2.1mm×50mm; Thermo Scientific) and analyzed using a Vanquish ultra-HPLC system (Thermo Fisher Scientific) coupled to a Q Exactive high-resolution mass spectrometer (Thermo Fisher Scientific). The sampler and column compartments were maintained at 4°C and 40°C, respectively. The aqueous mobile phase solution (A) consisted of water, whereas the organic mobile phase solution (B) consisted of acetonitrile. […] MS data was acquired in full scan mode (100–1000 m/z, 70,000 mass resolution, 3×10^6 maximum ions collected per 100 ms), and tandem MS (MS/MS) data was recorded by all-ion fragmentation (AIF) mode. Negative and positive ion modes were carried out simultaneously at a 10-min method duration. […] An overview of the analyses conducted on the various PFAS is available in Table S2.
GraphPad Prism (version 7.0.4; GraphPad Software) and R studio (version 1.1.456; R Studio Inc.) software was used, and an ANOVA with Dunnett tests was employed to evaluate the statistical significance of the percentage hatched and mortality rate. Exponential regressions were used to determine the relationships between bioconcentration factor (BCF) and binding affinities ( Kd ) to L-FABP.

[3] = target: liver fatty acid binding protein (L-FABP); set-up: method as in Yang et al. 2020; conditions: ref Yang et al. 2020; read-out: Kd (μM), L-FABP binding affinity; cited from earlier work
[4] = 5μM through 120 hpf, malformation rate
[5] = zebrafish (Danio rerio), in vivo

SMILES | pericardial oedemata, Mean [1, 4] | spinal curvature, Mean [1, 4] | tail dysplasia, Mean [1, 4] | Mortality (%) ([1]; 5 µM, exposure through 120 hpf) | BCF 0.5µM [2] | BCF 5µM [2] | Kd [3] | Mortality (%) ([1]; in vivo) | pericardial oedemata, Mean ([1]; in vivo) | spinal curvature, Mean ([1]; in vivo) | tail dysplasia, Mean ([1]; in vivo) | Mortality (%) [1, 5] | pericardial oedemata, Mean [1, 5] | spinal curvature, Mean [1, 5] | tail dysplasia, Mean [1, 5] | Lethal effects on zebrafish larvae ([1]; 5μM, 5 d)
O=C(O)C=C(C(F)(F)F)C(F)(F)F [compound 23, 3,3-Bis(trifluoromethyl)-2-propenoic acid] | 1.11% | 3.33% | 3.33% | 2.2% | 1.831 L/kg | 0.69 ± 0.29 L/kg |  |  |  |  |  |  |  |  |  | 
O=S(=O)(O)C(F)(F)C(F)(F)C(F)(F)C(F)(F)F [compound 73, Perfluorobutanesulfonic acid] | 0.00% | 1.11% | 0.00% | 5.6% | 2.903 L/kg | 2.8 ± 0.47 L/kg | 116 µM |  |  |  |  |  |  |  |  | 
OCC(F)(F)C(F)(F)C(F)(F)CO [compound 35, Hexafluoroamylene glycol] | 1.11% | 4.44% | 0.00% | 0% | 1.573 L/kg | 1.1 ± 0.09 L/kg |  |  |  |  |  |  |  |  |  | 
O=C(O)C(F)(F)C(F)(F)C(F)(F)OC(F)(F)F [compound 28, Perfluoro(4-methoxybutanoic) acid] | 0.00% | 2.22% | 0.00% | 1.1% | 5.238 L/kg | 1.4 ± 0.17 L/kg | 815 µM |  |  |  |  |  |  |  |  | 
O=S(=O)(O)CCC(F)(F)C(F)(F)C(F)(F)C(F)(F)F [compound 15, 4:2 Fluorotelomer sulfonic acid] |  |  |  |  | 5.68 L/kg | 2.5 ± 0.13 L/kg |  | 0 | 1.11% | 0.00% | 0.00% |  |  |  |  | 
O=C(O)C(F)(F)C(F)(F)C(F)(F)C(F)(F)C(F)(F)C(F)(F)C(F)(F)C(F)(F)F [compound 17, Perfluorononanoic acid] | 0.00% | 0.00% | 0.00% | 1.1% | 152.811 L/kg | 73 ± 6.9 L/kg | 4.3 µM |  |  |  |  |  |  |  |  | 
OCC(F)(F)C(F)(F)C(F)(F)C(F)(F)C(F)(F)C(F)(F)C(F)(F)C(F)(F)C(F)(F)C(F)(F)C(F)(F)F [compound 50, 11:1 Fluorotelomer alcohol] | 1.11% | 0.00% | 1.11% | 1.1% |  | 1.7 ± 0.23 L/kg |  |  |  |  |  |  |  |  |  | 
O=C(O)C(F)(F)OC(F)(F)C(F)(F)OC(F)(F)C(F)(F)OC(F)(F)C(F)(F)C(F)(F)C(F)(F)F [compound 34, Perfluoro-3,6,9-trioxatridecanoic acid] | 0.00% | 0.00% | 0.00% | 10% | 585 ± 174 L/kg and 584.908 L/kg | 93 ± 19 L/kg | 8.22 µM |  |  |  |  |  |  |  |  | 
O=S(=O)(O)C(F)(F)C(F)(F)C(F)(F)C(F)(F)C(F)(F)C(F)(F)C(F)(F)C(F)(F)F [compound 46, Perfluorooctanesulfonic acid] | 0.00% | 0.00% | 0.00% | 2.2% | 270.546 L/kg | 91 ± 10 L/kg | 8.1 µM |  |  |  |  |  |  |  |  | 
O=S(=O)([O-])C(F)(F)C(F)(F)C(F)(F)C(F)(F)F.[K+] [compound 57, Potassium perfluorobutanesulfonate] | 1.11% | 0.00% | 0.00% | 2.2% | 4.038 L/kg | 3.0 ± 0.54 L/kg | 125 µM |  |  |  |  |  |  |  |  | 
OCC(F)(F)C(F)(F)C(F)(F)C(F)F [compound 48, 1H,1H,5H-Perfluoropentanol] | 4.44% | 6.67% | 1.11% | 1.1% |  |  | 916 µM |  |  |  |  |  |  |  |  | 
O=C(O)C(F)(F)OC(F)(F)C(F)(F)OC(F)(F)C(=O)O [compound 7, Perfluoro-3,6-dioxaoctane-1,8-dioic acid] | 2.22% | 1.11% | 0.00% | 1.1% | NDb |  |  |  |  |  |  |  |  |  |  | 
O=C(O)C(F)(F)C(F)(F)C(F)(F)C(F)(F)C(F)(F)F [compound 20, Perfluorohexanoic acid] | 0.00% | 0.00% | 0.00% | 0% | 6.647 L/kg | 3.5 ± 0.64 L/kg | 141 µM |  |  |  |  |  |  |  |  | 
O=C(O)C(F)(F)OC(F)(F)C(F)(F)OC(F)(F)F [compound 54, Perfluoro-3,6-dioxaheptanoic acid] | 1.11% | 0.00% | 1.11% | 2.2% | 2.103 L/kg | 2.0 ± 0.40 L/kg | 252 µM |  |  |  |  |  |  |  |  | 
O=C(/C=C(\O)C(F)(F)F)C(F)(F)F [compound 61, 3H-Perfluoro-4-hydroxy-3-penten-2-one] |  |  |  |  |  | 7.7 ± 2.3 L/kg | 135 µM |  |  |  |  | 4.4 | 0.00% | 0.00% | 0.00% | 
O=S(=O)([O-])C(F)(F)C(F)(F)C(F)(F)C(F)(F)C(F)(F)C(F)(F)F.[K+] [compound 26, Potassium perfluorohexanesulfonate] | 0.00% | 0.00% | 0.00% | 3.3% | 55.2382 L/kg | 30 ± 0.71 L/kg | 11.2 µM |  |  |  |  |  |  |  |  | 
N.O=C(O)C(F)(F)C(F)(F)C(F)(F)C(F)(F)C(F)(F)C(F)(F)C(F)(F)F [compound 21, Ammonium perfluorooctanoate] | 2.22% | 1.11% | 2.22% | 0% | 42.5265 L/kg | 21 ± 0.42 L/kg | 18.7 µM |  |  |  |  |  |  |  |  | 
CCNS(=O)(=O)C(F)(F)C(F)(F)C(F)(F)C(F)(F)C(F)(F)C(F)(F)C(F)(F)C(F)(F)F [compound 24, N-Ethylperfluorooctanesulfonamide] | 1.11% | 1.11% | 1.11% | 3.3% | 28.4424 L/kg | 24 ± 2.9 L/kg |  |  |  |  |  |  |  |  |  | did not cause significant lethal effects
O=S(=O)([O-])C(F)(F)C(F)(F)C(F)(F)C(F)(F)C(F)(F)C(F)(F)C(F)(F)C(F)(F)F.[K+] [compound 6, Potassium perfluorooctanesulfonate] | 1.11% | 2.22% | 1.11% | 2.2% | 288 ± 99 L/kg and 287.815 L/kg | 82 ± 9.2 L/kg | 8.1 µM |  |  |  |  |  |  |  |  | 
